According to patent US20230121313A1 (priority 2019, published 2023):

What was measured:
[1] = test system: patients with treatment-resistant depression (TRD); test: Adverse events, phase 2 dose-response study in TRD; assay type: in vivo, human
Description: Adverse events were monitored throughout the study. Other safety assessments (i.e., laboratory tests, vital signs, physical examination) were performed at pre-specified time points. Vital signs, the Clinician Administered Dissociative States Scale (CADSS; Bremner, “Measurement of dissociative states with the clinician-administered dissociative states scale (CADSS)”, J. Traumatic Stress, 1998, 11(1):125-136), and the 4-item positive symptom subscale from the Brief Psychiatric Rating Scale (BPRS; Overall, “The Brief Psychiatric Rating Scale. Psychological Reports”, 1962, 10:799-812) were assessed pre-dose, at 40 minutes, and 2 hours post-dose.
Safety data were analyzed in Period 1, Period 2, double-blind, and open-label data sets, for all subjects receiving at least 1 dose of study medication.

adult subjects with TRD = conditions: human, in vivo, other: intranasal
Description: The CADSS is an instrument for the measurement of present-state dissociative symptoms, and was administered to assess treatment-emergent dissociative symptoms. The CADSS consists of 23 subjective items, divided into 3 components: Depersonalization (Items 3 to 7, 20, and 23), derealization (Items 1, 2, 8 to 13, 16 to 19, and 21) and amnesia (Items 14, 15, and 22). Participant's responses were coded on a 5-point scale (0=not at all through to 4=extremely).
The Clinician Administered Dissociative States Scale (CADSS) was measured prior to the start of each dose, at 40 minutes, and 1.5 hours postdose.

[2] = double-blind, esketamine 84 mg, N = 17
[3] = double-blind, esketamine Total, N = 56

Q: For `CN[C@]1(c2ccccc2Cl)CCCCC1=O` [esketamine, (S)-2-(2-chlorophenyl)-2-(methylamino)cyclohexanone], which “Feeling abnormal, % of participants” value [1, 2] is on record?
A: The value was “(6) %”.

Q: What about the “Feeling abnormal, number of participants” value [1, 2] of the same compound?
A: The value was 1.

Q: And the “Headache, % of participants” value [1, 2]?
A: Its value is “(18) %”.

Q: And the “Headache, number of participants” value [1, 2]?
A: The value was 3.

Q: What about the “Hypersomnia, number of participants” value [1, 2] of the same compound?
A: The value was 0.

Q: What about the “Hypertension, % of participants” value [1, 2] of the same compound?
A: The value was “(6) %”.

Q: And the “Hypertension, number of participants” value [1, 2]?
A: Its value is 1.

Q: And the “Hypoesthesia oral, % of participants” value [1, 2]?
A: Its value is “(12) %”.

Q: And the “Hypoesthesia oral, number of participants” value [1, 2]?
A: Its value is 2.

Q: And the “Insomnia, number of participants” value [1, 2]?
A: The value was 0.

Q: What about the “Nasal discomfort, % of participants” value [1, 2] of the same compound?
A: Its value is “(6) %”.

Q: And the “Nasal discomfort, number of participants” value [1, 2]?
A: Its value is 1.

Q: And the “Nausea, % of participants” value [1, 2]?
A: Its value is “(24) %”.

Q: And the “Nausea, number of participants” value [1, 2]?
A: Its value is 4.

Q: And the “Oropharyngeal pain, % of participants” value [1, 2]?
A: The value was “(12) %”.

Q: And the “Oropharyngeal pain, number of participants” value [1, 2]?
A: The value was 2.

Q: And the “Polyuria, number of participants” value [1, 2]?
A: Its value is 0.

Q: What about the “Sedation, % of participants” value [1, 2] of the same compound?
A: The value was “(6) %”.

Q: What about the “Sedation, number of participants” value [1, 2] of the same compound?
A: The value was 1.

Q: What about the “Throat irritation, % of participants” value [1, 2] of the same compound?
A: The value was “(12) %”.

Q: What about the “Throat irritation, number of participants” value [1, 2] of the same compound?
A: The value was 2.

Q: And the “Total with events, % of participants” value [1, 2]?
A: Its value is “(88) %”.

Q: And the “Total with events, number of participants” value [1, 2]?
A: The value was 15.

Q: What about the “Tunnel vision, % of participants” value [1, 2] of the same compound?
A: The value was “(12) %”.

Q: What about the “Tunnel vision, number of participants” value [1, 2] of the same compound?
A: The value was 2.

Q: What about the “Vertigo, % of participants” value [1, 2] of the same compound?
A: Its value is “(6) %”.

Q: What about the “Vertigo, number of participants” value [1, 2] of the same compound?
A: The value was 1.

Q: And the “Vision blurred, % of participants” value [1, 2]?
A: Its value is “(12) %”.

Q: What about the “Vision blurred, number of participants” value [1, 2] of the same compound?
A: Its value is 2.

Q: What about the “Dissociation, % of participants” value [1, 3] of the same compound?
A: The value was “(20) %”.

Q: What about the “Dissociation, number of participants” value [1, 3] of the same compound?
A: Its value is 11.

Q: And the “Dissociative disorder, % of participants” value [1, 3]?
A: Its value is “(13) %”.

Q: And the “Dissociative disorder, number of participants” value [1, 3]?
A: Its value is 7.

Q: And the “Dizziness, % of participants” value [1, 3]?
A: Its value is “(36) %”.

Q: And the “Dizziness, number of participants” value [1, 3]?
A: The value was 20.

Q: And the “Dysgeusia, % of participants” value [1, 3]?
A: The value was “(18) %”.

Q: And the “Dysgeusia, number of participants” value [1, 3]?
A: Its value is 10.

Q: What about the “Feeling abnormal, % of participants” value [1, 3] of the same compound?
A: Its value is “(7) %”.

Q: What about the “Feeling abnormal, number of participants” value [1, 3] of the same compound?
A: Its value is 4.

Q: And the “Headache, % of participants” value [1, 3]?
A: The value was “(21) %”.

Q: What about the “Headache, number of participants” value [1, 3] of the same compound?
A: Its value is 12.

Q: And the “Hypersomnia, % of participants” value [1, 3]?
A: The value was “(4) %”.

Q: And the “Hypersomnia, number of participants” value [1, 3]?
A: The value was 2.

Q: And the “Hypertension, % of participants” value [1, 3]?
A: Its value is “(5) %”.

Q: And the “Hypertension, number of participants” value [1, 3]?
A: The value was 3.

Q: What about the “Hypoesthesia oral, % of participants” value [1, 3] of the same compound?
A: Its value is “(13) %”.

Q: What about the “Hypoesthesia oral, number of participants” value [1, 3] of the same compound?
A: The value was 7.

Q: What about the “Insomnia, % of participants” value [1, 3] of the same compound?
A: Its value is “(4) %”.

Q: What about the “Insomnia, number of participants” value [1, 3] of the same compound?
A: The value was 2.

Q: What about the “Nasal discomfort, % of participants” value [1, 3] of the same compound?
A: The value was “(5) %”.

Q: What about the “Nasal discomfort, number of participants” value [1, 3] of the same compound?
A: Its value is 3.

Q: What about the “Nausea, % of participants” value [1, 3] of the same compound?
A: Its value is “(18) %”.

Q: What about the “Nausea, number of participants” value [1, 3] of the same compound?
A: Its value is 10.

Q: What about the “Oropharyngeal pain, % of participants” value [1, 3] of the same compound?
A: Its value is “(5) %”.

Q: What about the “Oropharyngeal pain, number of participants” value [1, 3] of the same compound?
A: The value was 3.

Q: And the “Polyuria, % of participants” value [1, 3]?
A: The value was “(4) %”.

Q: What about the “Polyuria, number of participants” value [1, 3] of the same compound?
A: Its value is 2.

Q: And the “Sedation, % of participants” value [1, 3]?
A: Its value is “(7) %”.

Q: What about the “Sedation, number of participants” value [1, 3] of the same compound?
A: Its value is 4.

Q: And the “Throat irritation, % of participants” value [1, 3]?
A: The value was “(5) %”.

Q: And the “Throat irritation, number of participants” value [1, 3]?
A: Its value is 3.

Q: And the “Total with events, % of participants” value [1, 3]?
A: The value was “(75) %”.

Q: And the “Total with events, number of participants” value [1, 3]?
A: Its value is 42.

Q: And the “Tunnel vision, % of participants” value [1, 3]?
A: Its value is “(4) %”.

Q: What about the “Tunnel vision, number of participants” value [1, 3] of the same compound?
A: The value was 2.

Q: And the “Vertigo, % of participants” value [1, 3]?
A: Its value is “(7) %”.

Q: And the “Vertigo, number of participants” value [1, 3]?
A: The value was 4.

Q: And the “Vision blurred, % of participants” value [1, 3]?
A: The value was “(4) %”.

Q: What about the “Vision blurred, number of participants” value [1, 3] of the same compound?
A: Its value is 2.

Q: What about the “Participants with adverse events leading to discontinuation of study drug” value ([1]; phase 2, double-blind phase) of the same compound?
A: The value was 5%.

Q: And the “Adverse event dizziness, % of participants” value ([1]; phase 2, open-label phase)?
A: The value was 38.6%.

Q: And the “Adverse event dysgeusia, % of participants” value ([1]; phase 2, open-label phase)?
A: The value was 22.8%.

Q: And the “Adverse event headache, % of participants” value ([1]; phase 2, open-label phase)?
A: Its value is 14.0%.

Q: And the “Adverse event nausea, % of participants” value ([1]; phase 2, open-label phase)?
A: Its value is 15.8%.

Q: And the “Adverse event sedation, % of participants” value ([1]; phase 2, open-label phase)?
A: Its value is 10.5%.

Q: And the “Participants reporting transient dissociative symptoms” value ([1]; phase 2, open-label phase)?
A: Its value is 24.6%.

Q: And the “Participants with adverse events leading to discontinuation of study drug” value ([1]; phase 2, open-label phase)?
A: The value was 2%.

Q: And the “CADSS dissociative and perceptual change symptoms resolved by (postdose)” value (adult subjects with TRD)?
A: Its value is no more than 1.5 h.
